Patent publication US20040209914A1, “Aromatic sulfone hydroxamic acids and their use as protease inhibitors” (priority 2000, published 2004)

What was measured:
Assay in all cases: biochemical
Recombinant human MMP-2 = target: T1, Recombinant human MMP-2 (Homo sapiens, UniProt P08253); details: fluorogenic MCA-peptide substrate, pH 7.5, room temperature; read-out: MMP-2 IC50
T1 construct: made in house
T1 sequence (P08253 110-660): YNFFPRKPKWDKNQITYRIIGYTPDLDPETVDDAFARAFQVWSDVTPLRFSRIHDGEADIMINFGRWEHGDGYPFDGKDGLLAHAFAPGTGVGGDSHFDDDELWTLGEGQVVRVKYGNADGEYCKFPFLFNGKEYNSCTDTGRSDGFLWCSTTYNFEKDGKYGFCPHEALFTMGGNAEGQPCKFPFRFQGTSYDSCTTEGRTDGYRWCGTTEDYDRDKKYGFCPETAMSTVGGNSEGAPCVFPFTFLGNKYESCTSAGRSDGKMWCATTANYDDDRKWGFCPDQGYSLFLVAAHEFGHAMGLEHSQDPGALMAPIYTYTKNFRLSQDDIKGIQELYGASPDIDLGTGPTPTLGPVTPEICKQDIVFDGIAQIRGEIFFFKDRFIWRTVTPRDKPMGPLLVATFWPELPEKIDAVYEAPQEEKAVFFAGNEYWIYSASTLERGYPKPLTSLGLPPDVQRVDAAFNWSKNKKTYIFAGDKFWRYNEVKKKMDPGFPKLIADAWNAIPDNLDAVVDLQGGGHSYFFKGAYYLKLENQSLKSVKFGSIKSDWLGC
Experimental: (§1) Recombinant human MMP-1, MMP-2, MMP-9, MMP-13, and were used in this assay. These enzymes were prepared in the Assignee's es following usual laboratory procedures. Specifics for preparing and e enzymes can be found in the scientific literature describing these See, e.g., Enzyme Nomenclature (Academic Press, San Diego, Calif., d the citations therein).
The MMP-2 was obtained from MMP-2 expressing transfected cells provided by Dr. Gregory Goldberg of Washington University.
(§2) The enzyme substrate was a methoxycoumarin-containing polypeptide having the following sequence:
(§3) MCA-ProLeuGlyLeuDpaAlaArgNH2
(§4) Here, “MCA” is methoxycoumarin and “Dpa” is 3-(2,4-dinitrophenyl)-L-2,3-diaminopropionyl alanine.
(§5) These solutions were then compared to a control (which contained equal amount of DMSO/buffer solution, but no hydroxamate compound) using Microfluor™ White Plates (Dynatech, Chantilly, Va.). Specifically, The MMPs were activated with APMA or trypsin. […] The control likewise was incubated at room temperature in separate plates with the MMP and 4 uM of the MMP substrate. […] Inhibition was measured as a reduction in fluorescent intensity as a function of inhibitor concentration using a Perkin Elmer (Norwalk, Conn.) L550 plate reader. The IC50's were then calculated from these measurements.

Recombinant human MMP-13 = target: T2, Recombinant human MMP-13 (Homo sapiens, UniProt P45452); details: fluorogenic MCA-peptide substrate, pH 7.5, room temperature; read-out: MMP-13 IC50
T2 construct: made in house; host or cells: baculovirus / insect cells
Experimental: as §1
The expressed proenzyme was first purified over a heparin agarose column, and then over a chelating zinc chloride column. The proenzyme was then activated by APMA for use in the assay.
as §2, §3, §4, §5

Recombinant human MMP-1 = target: T3, Recombinant human MMP-1 (Homo sapiens, UniProt P03956); details: fluorogenic MCA-peptide substrate, pH 7.5, room temperature
T3 construct: made in house; host or cells: transfected HT-1080 cells
T3 sequence (P03956 100-469): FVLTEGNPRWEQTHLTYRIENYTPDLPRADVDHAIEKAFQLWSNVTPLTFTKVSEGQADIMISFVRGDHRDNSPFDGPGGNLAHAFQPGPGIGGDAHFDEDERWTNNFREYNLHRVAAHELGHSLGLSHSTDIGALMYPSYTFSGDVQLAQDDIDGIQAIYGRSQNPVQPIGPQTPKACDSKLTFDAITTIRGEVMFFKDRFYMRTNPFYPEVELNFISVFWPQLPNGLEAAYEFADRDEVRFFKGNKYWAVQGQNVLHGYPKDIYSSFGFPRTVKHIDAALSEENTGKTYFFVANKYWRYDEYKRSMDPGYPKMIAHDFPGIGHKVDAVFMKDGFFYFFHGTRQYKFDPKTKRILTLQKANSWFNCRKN
Experimental: as §1
The MMP-1 was obtained from MMP-1 expressing transfected HT-1080 cells provided by Dr. Harold Welgus of Washington University in St. Louis, Mo. The MMP-1 was activated using 4-aminophenylmercuric acetate (APMA), and then purified over a hydroxamic acid column.
as §2, §3, §4, §5

Compound | IC50 (Recombinant human MMP-2) | IC50 (Recombinant human MMP-13) | IC50 (Recombinant human MMP-1)
COCCN1CCC(C(=O)NO)(S(=O)(=O)c2ccc(N3CCC(C(=O)c4ccc(OC)cc4)CC3)cc2)CC1 [Example 156] | 1340 nM | 0.7 nM | > 10000 nM
CCC(CC)Cc1ccc(C(=O)C2CCN(c3ccc(S(=O)(=O)C4(C(=O)NO)CCN(CC)CC4)cc3)CC2)cc1 [Example 234] | 2440 nM | 7.5 nM | > 10000 nM
CCN1CCC(C(=O)NO)(S(=O)(=O)c2ccc(N3CCC(C(=O)c4ccc(CCCC(C)O)cc4)CC3)cc2)CC1 (centres unmarked) [Example 247] | 111 nM | 0.3 nM | > 10000 nM
C#CCN1CCC(C(=O)NO)(S(=O)(=O)c2ccc(N3CCC(C(=O)c4ccc(OC)cc4)CC3)cc2)CC1 [Example 151] | 128 nM | 1.3 nM | > 10000 nM
C=CCN1CCC(C(=O)NO)(S(=O)(=O)c2ccc(N3CCC(C(=O)c4ccc(N(C)CC)cc4)CC3)cc2)CC1 [Example 181] | 936 nM | 2.3 nM | > 10000 nM
Cc1ccc(C(=O)C2CCN(c3ccc(S(=O)(=O)C4(C(=O)NO)CCN(S(C)(=O)=O)CC4)cc3)CC2)cc1C [Example 164] | 942 nM | 5.4 nM | > 10000 nM
CC(C)Cc1ccc(C(=O)C2CCN(c3ccc(S(=O)(=O)C4(C(=O)NO)CCOCC4)cc3)CC2)cc1 [Example 377] | 361 nM | 0.4 nM | > 10000 nM
O=C(NO)C1(S(=O)(=O)c2ccc(N3CCC(Sc4nc5ccccc5s4)CC3)cc2)CCN(C2CC2)CC1 [Example 185] | 87.4 nM | 5.1 nM | > 10000 nM
C=CCN1CCC(C(=O)NO)(S(=O)(=O)c2ccc(N3CCC(C(=O)c4ccc(Cl)cc4)CC3)cc2)CC1 [Example 180] | 52.7 nM | 0.3 nM | > 10000 nM
COCCN1CCC(C(=O)NO)(S(=O)(=O)c2ccc(N3CCC(c4ccc(Cl)cc4)CC3)cc2)CC1 [Example 271] | 1.7 nM | 0.8 nM | > 10000 nM
O=C(c1ccc(CCC2CCCC2)cc1)C1CCN(c2ccc(S(=O)(=O)C3(C(=O)NO)CCOCC3)cc2)CC1 [Example 381] | 640 nM | 3.5 nM | > 10000 nM
O=C(c1ccc(Cl)cc1)C1CCN(c2ccc(S(=O)(=O)C3(C(=O)NO)CCN(CC4CC4)CC3)cc2)CC1 [Example 123] | 46.3 nM | 0.1 nM | > 10000 nM
O=C(C1CCN(c2ccc(S(=O)(=O)C3(C(=O)NO)CCOCC3)cc2)CC1)N1CCN(C2CCCC2)CC1 [Example 14] | > 10000 nM | 45 nM | > 10000 nM
O=C(NO)C1(S(=O)(=O)c2ccc(N3CCC(c4ccc(Cl)cc4)CC3)cc2)CCN(CC2CC2)CC1 [Example 274] | – | 2.1 nM | > 10000 nM
O=C(NO)C1(S(=O)(=O)c2ccc(N3CCC(c4ccc(F)cc4)CC3)cc2)CCN(CC2CC2)CC1 [Example 263] | 2.6 nM | 1.5 nM | > 10000 nM
COCCN1CCC(C(=O)NO)(S(=O)(=O)c2ccc(N3CCC(C(=O)c4ccc(OC(C)C)c(C)c4)CC3)cc2)CC1 [Example 191] | 2290 nM | 3 nM | > 10000 nM
COCCN1CCC(C(=O)NO)(S(=O)(=O)c2ccc(N3CCC(C(=O)c4ccc(CCC(C)C)cc4)CC3)cc2)CC1 [Example 246] | 2710 nM | 1 nM | > 10000 nM
O=C(C1CCN(c2ccc(S(=O)(=O)C3(C(=O)NO)CCOCC3)cc2)CC1)N1CCN(c2ccc([N+](=O)[O-])cc2)CC1 [Example 25] | 445 nM | 4 nM | > 10000 nM
